# Legend:
# L. major PM2 = assay: Analysis of in vivo anti-leishmanial activity (leishmaniasis mouse model); details: mice infected with 1×10^7 promastigotes of L. major PM2; 200 μg by peritoneal injection once a day for three weeks; size of ulcer, antibody titer in blood, protozoan DNA in blood (FIG. 10-12)
# Description: In order to evaluate the in vivo anti-leishmanial activity of the compound represented by formula (3), which had been isolated by the procedure described above, a leishmaniasis mouse model was used to investigate the therapeutic effect. Six-week old mice ([…], male, 6 animals per group) were infected with 1×10^7 cells of cultured promastigotes of L. major PM2. From the day after the infection day, the compound represented by the formula (3) was administered to each specimen in an amount of 200 μg by peritoneal injection. The administration schedule was such that the compound was continuously administered once a day for three weeks. Further, as control, the same analysis was carried out also for a treatment group to which Amphotericin B was administered, and for a treatment group to which none was administered.
# [1] = tested on: Leishmania major promastigotes (MHOM/UZ/91/PM2); assay: Analysis of in vitro anti-leishmanial activity (growth inhibition of L. major/egfp promastigotes, fluorescence); type: cell-based; details: 25° C., 72 h, inhibition with Amphotericin B (positive control) defined as 100%, FIG. 9
# Description: The compounds represented by formulas (1) to (6), which had been isolated by the procedure described above, were subjected to an analysis of the physiological activity under the conditions that are described below. Leishmania major promastigotes (MHOM/UZ/91/PM2) were selected as the Leishmania protozoa, and a L. major/egfp promastigotes in which a fluorescent protein egfp gene had been introduced was used. The compounds mentioned above were used as samples. Thus, the growth inhibition rate was determined under the following conditions.
# Promastigotes of transgenic Leishmania major (MHOM/UZ/91/PM2) expressing enhanced green fluorescent protein (L. major/egfp) were maintained at 25° C. in 199 medium (NISSUI Pharmaceutical, Tokyo, Japan) containing 10% fetal bovine serum, 25 mM Hepes buffer (MP Biomedicals, LLC) and 10 μg/mL […] (SIGMA-ALDRICH, inc., USA). […] Thereafter, fluorescence signals of L. major/egfp promastigotes were measured with a fluorescence microplate reader (Fluoroscan Ascent FL, Dainippon. Pharmaceutical Co., Osaka, Japan) with excitation at 485 nm and emission at 538 nm. […]
compound,measurement,setting,value
CC(C)=CCC/C(C)=C/CC/C(C)=C/CC/C(C)=C/CC1(CC(=O)O)CC(=O)C=CC1=O (centres unmarked) [formula (3)],in vivo anti-leishmanial activity,L. major PM2,equal to that of Amphotericin B
same,growth inhibition rate,[1],almost equal to the growth inhibition rate of Amphotericin B

# Source: patent publication US8809555B2, “Anti-leishmanial compound and anti-leishmanial drug” (Aoyama Gakuin Educational Foundation, priority 2010, dated 2014)
